This is an account of results in patent publication US12552799B2, “Triazolone compounds” (Nxera Pharma UK Limited, priority 2020, dated 2026).

Some results are limits rather than exact numbers.

The target of test [1] is human CB-1 cannabinoid receptor (Homo sapiens (Human), UniProt P21554). In words: CB-1 receptor radioligand binding assay ([3H]CP 55940, transfected CHO cell membranes). Particulars: 0.5 nM [3H]CP 55940, 120 min at 37° C., agonist site. As for the experimental part: Nonspecific binding is determined in the presence of 10 μM WIN 55212-2.
human CB-1 cannabinoid receptor, sequence (P21554 whole entry): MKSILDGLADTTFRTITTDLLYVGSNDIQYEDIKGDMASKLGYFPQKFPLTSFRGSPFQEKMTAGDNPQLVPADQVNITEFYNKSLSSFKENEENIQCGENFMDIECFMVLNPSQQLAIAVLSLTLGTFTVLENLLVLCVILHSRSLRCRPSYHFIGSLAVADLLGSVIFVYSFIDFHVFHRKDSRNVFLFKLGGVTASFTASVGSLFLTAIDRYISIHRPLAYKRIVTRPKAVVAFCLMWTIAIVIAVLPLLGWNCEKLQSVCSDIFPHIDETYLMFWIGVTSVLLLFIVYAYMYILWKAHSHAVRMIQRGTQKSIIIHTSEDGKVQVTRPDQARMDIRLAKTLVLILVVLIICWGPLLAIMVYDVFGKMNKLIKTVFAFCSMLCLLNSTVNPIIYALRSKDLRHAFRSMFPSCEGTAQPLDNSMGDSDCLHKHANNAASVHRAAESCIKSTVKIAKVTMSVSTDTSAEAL
Following incubation, the samples are filtered rapidly under vacuum through glass fiber filters (GF/B, Packard) presoaked with 0.3% PEI and rinsed several times with an ice-cold buffer containing 50 mM Tris-HCl (pH 7.4) and 0.5% BSA using a 96-sample cell harvester (Unifilter, Packard). The filters are dried then counted for radioactivity in a scintillation counter (Topcount, Packard) using a scintillation cocktail (Microscint O, Packard).
The standard reference compound is CP 55940 which is tested in each experiment at several concentrations to obtain a competition curve from which its IC50 is calculated.
In Table 5, blank entries for Ki indicate that the observed binding was too weak to measure a Ki value.

For test [2], the target named is human adenosine A1 receptor (Homo sapiens (Human), UniProt P30542). In words: Adenosine receptor binding assay, A1 ([3H]DPCPX inhibition binding on membranes). Particulars: 1 nM [3H]DPCPX, 25° C., 1 h, Ki from IC50 by Cheng-Prusoff. As to the method: (§1) Inhibition binding assays were performed using 0.2 μg of membranes prepared from HEK293 cells infected with BacMam human adenosine A2A receptor or 1.4 μg of membranes prepared from HEK293 cells infected with BacMam human adenosine A1 receptor. Membranes were incubated in 50 mM Tris-HCl (HEK293-hA2A; pH 7.4) or 50 mM Tris-HCl, 100 mM NaCl, 10 mM MgCl2 (CHO-hA1; pH 7.4) in the presence of varying concentrations of test compound and 1 nM [^3H]ZM241385 (HEK293-hA2A) or [^3H]DPCPX (CHO-hA1) at 25° C. for 1 h. The assay was then terminated by rapid filtration onto GF/B grade Unifilter plates using a TomTec cell harvester, followed by 5×0.5 ml washes with ddH2O. Nonspecific binding was defined in the presence of 1 μM CGS15943 (HEK293-hA2A) or 1 μM DPCPX (CHO-hA1). Bound radioactivity was determined by liquid scintillation counting and inhibition curves were analysed using a four-parameter logistic equation. IC50 values were converted to Ki values with the Cheng-Prusoff equation using a KD value derived from saturation binding studies.
human adenosine A1 receptor, sequence (P30542 whole entry): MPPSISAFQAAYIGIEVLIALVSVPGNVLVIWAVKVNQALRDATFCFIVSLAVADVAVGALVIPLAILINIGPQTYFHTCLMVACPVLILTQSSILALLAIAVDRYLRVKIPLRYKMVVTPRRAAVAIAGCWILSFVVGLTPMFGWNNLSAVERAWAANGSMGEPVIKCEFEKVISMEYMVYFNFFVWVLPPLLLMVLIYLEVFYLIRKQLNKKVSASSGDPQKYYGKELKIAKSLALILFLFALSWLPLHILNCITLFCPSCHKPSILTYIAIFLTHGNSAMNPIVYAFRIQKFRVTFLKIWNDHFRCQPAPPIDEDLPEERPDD

The target of test [3] is human adenosine A2A receptor (Homo sapiens (Human), UniProt P29274). The test is described as follows: Adenosine receptor binding assay, A2A ([3H]ZM241385 inhibition binding on HEK293 membranes). Particulars: 1 nM [3H]ZM241385, 25° C., 1 h, Ki from IC50 by Cheng-Prusoff. As to the method:
as §1

A further test addresses human CB1 receptor (Homo sapiens (Human), UniProt P21554). In words: CB1 receptor antagonism, agonist-induced cAMP modulation (HTRF) in transfected CHO cells. The test is classed as cell-based. To be noted: inhibition of control response to 3 nM CP 55940, cAMP HTRF, read-out: Antag IC50. As for the experimental part: Receptor antagonism: Evaluation of the antagonist activity of compounds at the human CB1 receptor expressed in transfected CHO cells, determined by measuring their effects on agonist-induced cAMP modulation using the HTRF detection method.
The cells are suspended in HBSS buffer (Invitrogen) complemented with 20 mM HEPES (pH 7.4), then distributed in microplates at a density of 5.10^3 cells/well and preincubated for 5 min at room temperature in the presence of either of the following: HBSS (stimulated control), the reference antagonist AM 281 at 3 μM (basal control) or various concentrations (IC50 determination), or the test compounds.
Thereafter, the reference agonist CP 55940 and the adenylyl cyclase activator NKH 477 are added at respective final concentrations of 3 nM and 3 μM.
For basal control measurements, CP 55940 is omitted from the wells containing 3 μM AM 281.
Following 20 min incubation at 37° C., the cells are lysed and the fluorescence acceptor (D2-labeled cAMP) and fluorescence donor (anti-cAMP antibody labeled with europium cryptate) are added.
After 60 min at room temperature, the fluorescence transfer is measured at λex=337 nm and λem=620 and 665 nm using a microplate reader (Rubystar, BMG). The cAMP concentration is determined by dividing the signal measured at 665 nm by that measured at 620 nm (ratio).
The results are expressed as a percent inhibition of the control response to 3 nM CP 55940.
The standard reference antagonist is AM 281, which is tested in each experiment at several concentrations to generate a concentration-response curve from which its IC50 value is calculated.
(In general: Time-resolved FRET reads energy transfer from a long-lived donor to a nearby acceptor.)

human CB1 receptor, sequence (P21554 whole entry): as the sequence (P21554 whole entry) above
human adenosine A2A receptor, sequence (P29274 whole entry): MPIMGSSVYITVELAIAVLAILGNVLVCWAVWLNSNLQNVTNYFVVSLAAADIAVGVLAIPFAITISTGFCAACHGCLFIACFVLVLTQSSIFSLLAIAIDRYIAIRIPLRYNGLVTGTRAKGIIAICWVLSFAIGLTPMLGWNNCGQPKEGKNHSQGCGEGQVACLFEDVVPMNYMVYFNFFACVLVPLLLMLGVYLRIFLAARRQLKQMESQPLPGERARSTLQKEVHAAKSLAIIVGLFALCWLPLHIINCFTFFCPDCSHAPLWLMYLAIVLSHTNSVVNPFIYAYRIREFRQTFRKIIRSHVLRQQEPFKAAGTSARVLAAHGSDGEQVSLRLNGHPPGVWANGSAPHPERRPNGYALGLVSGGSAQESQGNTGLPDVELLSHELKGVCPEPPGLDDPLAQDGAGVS

As to `C[C@@H]1CC(c2c(-c3ccccc3)nc(N)n3c(=O)n(CCC(F)(F)F)nc23)=C[C@H](C)O1` (relative stereo) [Example 2-1, 5-amino-8-[(cis)-2,6-dimethyl-3,6-dihydro-2H-pyran-4-yl]-7-phenyl-2-(3,3,3-trifluoropropyl)-[1,2,4]triazolo[4,3-c]pyrimidin-3-one], the Ki in test [1] worked out at 31.5 µM. Besides, the “A1 pKi” value in test [2] is reported as 6.3. Further, in test [3], the “A2A pKi” value turned out to be 8.6. For the same molecule, at human CB1 receptor, the IC50 was determined as 72.2 µM.
In test [1], `C[C@@H]1CN(c2c(-c3ccccc3)nc(N)n3c(=O)n(CCC(F)(F)F)nc23)C[C@H](C)O1` [Example 1-1, 5-amino-8-[(cis)-2,6-dimethylmorpholin-4-yl]-7-phenyl-2-(3,3,3-trifluoropropyl)-[1,2,4]triazolo[4,3-c]pyrimidin-3-one] showed a Ki of 33.9 µM. The “A1 pKi” value in test [2] is <5.4. Further, the “A2A pKi” value in test [3] stood at 8.3. Further, the IC50 at human CB1 receptor turned out to be 14.7 µM.
`C[C@@H]1CN(c2c(-c3ccccc3)nc(N)n3c(=O)n(Cc4ccc(F)cn4)nc23)C[C@H](C)O1` [Example 1-14, 5-amino-8-[(cis)-2,6-dimethylmorpholin-4-yl]-2-[(5-fluoro-2-pyridyl)methyl]-7-phenyl-[1,2,4]triazolo[4,3-c]pyrimidin-3-one] gave a Ki in test [1] of 9.5 µM. Also, the “A1 pKi” value in test [2] is 5.9. Besides, the “A2A pKi” value in test [3] stood at 7.9. Further, the IC50 on human CB1 receptor was determined as 7 µM.
Molecule `Cc1cc(-c2c(-c3ccc(F)cc3)nc(N)n3c(=O)n(CCC(F)(F)F)nc23)cc2ocnc12` [Example 4-1, 5-amino-7-(4-fluorophenyl)-8-(4-methyl-1,3-benzoxazol-6-yl)-2-(3,3,3-trifluoropropyl)-[1,2,4]triazolo[4,3-c]pyrimidin-3-one] had a Ki in test [1] of 3.7 µM. Further, the “A1 pKi” value in test [2] is 6.5. The “A2A pKi” value in test [3] was 9.3. The half-maximal inhibitory concentration (IC50) at human CB1 receptor came to 2.4 µM.
Regarding `Cc1cc(-c2c(-c3ccccc3)nc(N)n3c(=O)n(Cc4ccc(F)cn4)nc23)cc2cn[nH]c12` [Example 4-4, 5-amino-2-[(5-fluoro-2-pyridyl)methyl]-8-(7-methyl-1H-indazol-5-yl)-7-phenyl-[1,2,4]triazolo[4,3-c]pyrimidin-3-one], the Ki in test [1] is 5.5 µM; in test [2] (read-out: A1 pKi (converted)), 0.0251 µM; in test [3] (read-out: A2A pKi (converted)) it was 0.000251 µM. The IC50 at human CB1 receptor was found to be 1.3 µM.
As for `Cc1cc(-c2c(-c3ccccc3)nc(N)n3c(=O)n(Cc4ccc(F)cn4)nc23)cc2nc[nH]c12` [Example 4-5, 5-amino-2-[(5-fluoro-2-pyridyl)methyl]-8-(7-methyl-1H-benzimidazol-5-yl)-7-phenyl-[1,2,4]triazolo[4,3-c]pyrimidin-3-one], in test [1], the Ki turned out to be 24.4 µM. Besides, the “A1 pKi” value in test [2] is given as 7.0. Moreover, in test [3], the “A2A pKi” value is 9.0. Also, the IC50 at human CB1 receptor was determined as 68.6 µM.
Taken in the same sequence, the figures for `Cc1ocnc1Cn1nc2c(-c3cc(C)c4[nH]ncc4c3)c(-c3ccccc3)nc(N)n2c1=O` [Example 4-9, 5-amino-8-(7-methyl-1H-indazol-5-yl)-2-[(5-methyloxazol-4-yl)methyl]-7-phenyl-[1,2,4]triazolo[4,3-c]pyrimidin-3-one] were 39.1 µM, 8.8, 10.1 and 15.5 µM.
Taken in the same sequence, the figures for `Cc1ocnc1Cn1nc2c(-c3cc(Cl)c4[nH]ncc4c3)c(-c3ccccc3)nc(N)n2c1=O` [Example 4-11, 5-amino-8-(7-chloro-1H-indazol-5-yl)-2-[(5-methyloxazol-4-yl)methyl]-7-phenyl-[1,2,4]triazolo[4,3-c]pyrimidin-3-one] were 2.5 µM, 8.7, 9.8 and 2.6 µM.
With `Cc1ocnc1Cn1nc2c(-c3cc(C)c4[nH]ccc4c3)c(-c3ccccc3)nc(N)n2c1=O` [Example 4-12, 5-amino-8-(7-methyl-1H-indol-5-yl)-2-[(5-methyloxazol-4-yl)methyl]-7-phenyl-[1,2,4]triazolo[4,3-c]pyrimidin-3-one], the Ki in test [1] amounted to 39.6 µM. For the same molecule, the “A1 pKi” value in test [2] is reported as 7.2. In test [3], the “A2A pKi” value was found to be 9.3. For the same molecule, on human CB1 receptor, the IC50 came to 22.5 µM.

Usually IC50 stands for the concentration that gives 50% inhibition.
